Reference: PMC8698333 (Biomedicines, 2021)
No end group written: not given here.

Columns and labels:
hKOR with GαoA subunit = hKOR with GαoA subunit (Homo sapiens, UniProt P41145); experiment: cell-based; details: SEM
hKOR with Gα1 subunit = biological target: T1, hKOR with Gα1 subunit (Homo sapiens, UniProt P41145); experiment: TRUPATH (BRET) G-protein dissociation, Gα1 subunit; type: cell-based; details: SEM
T1 construct: alpha7 nicotinic receptor signal peptide (N); expressed in transfected cells; host or cells: HEK293, transient
T1 sequence (P16520 whole entry): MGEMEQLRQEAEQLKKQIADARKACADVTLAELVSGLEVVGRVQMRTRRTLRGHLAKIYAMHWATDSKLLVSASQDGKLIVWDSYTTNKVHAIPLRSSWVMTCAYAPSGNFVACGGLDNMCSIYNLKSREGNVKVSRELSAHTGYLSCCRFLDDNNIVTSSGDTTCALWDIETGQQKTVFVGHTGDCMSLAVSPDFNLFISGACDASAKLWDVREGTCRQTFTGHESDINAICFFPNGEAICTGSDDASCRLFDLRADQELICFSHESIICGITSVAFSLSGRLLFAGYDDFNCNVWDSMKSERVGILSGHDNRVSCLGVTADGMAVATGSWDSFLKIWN
T1 sequence (P63096 whole entry, further chain): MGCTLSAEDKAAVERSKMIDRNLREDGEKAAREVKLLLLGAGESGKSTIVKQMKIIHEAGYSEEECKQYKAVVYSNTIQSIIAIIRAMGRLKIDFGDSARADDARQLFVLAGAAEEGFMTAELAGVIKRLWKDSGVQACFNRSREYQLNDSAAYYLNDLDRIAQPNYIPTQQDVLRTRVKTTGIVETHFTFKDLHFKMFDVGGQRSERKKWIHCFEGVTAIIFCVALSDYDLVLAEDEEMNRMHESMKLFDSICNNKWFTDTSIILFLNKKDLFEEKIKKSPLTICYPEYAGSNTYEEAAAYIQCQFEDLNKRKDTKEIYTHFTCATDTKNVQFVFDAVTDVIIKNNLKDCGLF
T1 sequence (P41145 whole entry): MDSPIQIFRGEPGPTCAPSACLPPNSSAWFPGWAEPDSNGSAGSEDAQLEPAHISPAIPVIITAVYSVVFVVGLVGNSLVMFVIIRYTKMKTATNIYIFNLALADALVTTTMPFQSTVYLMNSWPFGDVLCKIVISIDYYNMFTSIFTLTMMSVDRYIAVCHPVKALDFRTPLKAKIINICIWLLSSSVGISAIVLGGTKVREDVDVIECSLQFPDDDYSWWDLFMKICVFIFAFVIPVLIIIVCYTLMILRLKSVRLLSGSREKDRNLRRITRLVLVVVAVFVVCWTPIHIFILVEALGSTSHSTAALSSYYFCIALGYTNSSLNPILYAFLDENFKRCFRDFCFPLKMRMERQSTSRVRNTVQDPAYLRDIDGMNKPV
T1 sequence (O14610 1-66, further chain): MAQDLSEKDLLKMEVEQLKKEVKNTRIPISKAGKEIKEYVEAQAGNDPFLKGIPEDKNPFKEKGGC

hKOR with Gα2 subunit = biological target: T2, hKOR with Gα2 subunit (Homo sapiens, UniProt P41145); experiment: TRUPATH (BRET) G-protein dissociation, Gα2 subunit; type: cell-based; details: SEM
T2 construct: alpha7 nicotinic receptor signal peptide (N); expressed in transfected cells; host or cells: HEK293, transient
T2 sequence (P41145 whole entry): as the sequence (P41145 whole entry) above
T2 sequence (P04899 whole entry partner): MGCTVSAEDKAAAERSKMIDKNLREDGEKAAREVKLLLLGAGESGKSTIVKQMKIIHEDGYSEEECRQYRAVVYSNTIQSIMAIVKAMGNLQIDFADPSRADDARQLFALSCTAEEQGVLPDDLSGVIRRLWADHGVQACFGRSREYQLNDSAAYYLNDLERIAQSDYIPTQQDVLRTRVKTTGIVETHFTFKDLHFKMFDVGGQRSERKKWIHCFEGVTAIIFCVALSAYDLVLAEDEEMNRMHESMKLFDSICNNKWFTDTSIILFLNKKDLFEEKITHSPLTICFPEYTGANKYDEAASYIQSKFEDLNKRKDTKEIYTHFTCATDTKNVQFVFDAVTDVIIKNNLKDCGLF
T2 sequence (P16520 whole entry partner): as the sequence (P16520 whole entry) above
T2 sequence (Q9UK08 1-67 partner limits assumed): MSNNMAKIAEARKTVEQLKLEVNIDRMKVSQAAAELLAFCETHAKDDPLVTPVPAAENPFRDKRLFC

[1] = biological target: T3, hKOR (β-arrestin recruitment) (Homo sapiens, UniProt P41145); experiment: PRESTO-Tango β-arrestin recruitment assay; type: cell-based; details: SEM
T3 construct: tTA (Tango cassette); expressed in transfected cells; host or cells: HEK293, transient
T3 sequence (P41145 whole entry): as the sequence (P41145 whole entry) above
T3 sequence (P32121 whole entry partner): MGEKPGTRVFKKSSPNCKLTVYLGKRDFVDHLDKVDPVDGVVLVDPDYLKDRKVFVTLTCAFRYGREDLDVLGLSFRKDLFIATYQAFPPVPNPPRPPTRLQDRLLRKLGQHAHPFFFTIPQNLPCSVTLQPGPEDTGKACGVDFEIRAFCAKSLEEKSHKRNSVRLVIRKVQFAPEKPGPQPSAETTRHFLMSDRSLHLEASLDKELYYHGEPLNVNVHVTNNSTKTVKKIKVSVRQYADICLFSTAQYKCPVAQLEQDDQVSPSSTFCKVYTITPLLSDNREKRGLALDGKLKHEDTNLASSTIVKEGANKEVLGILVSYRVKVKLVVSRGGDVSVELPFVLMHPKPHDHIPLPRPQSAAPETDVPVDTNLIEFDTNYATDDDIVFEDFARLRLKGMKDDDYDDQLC

hKOR with GαZ subunit = biological target: T4, hKOR with GαZ subunit (Homo sapiens, UniProt P41145); experiment: TRUPATH (BRET) G-protein dissociation, GαZ subunit; type: cell-based; details: SEM
T4 construct: alpha7 nicotinic receptor signal peptide (N); expressed in transfected cells; host or cells: HEK293, transient
T4 sequence (P41145 whole entry): as the sequence (P41145 whole entry) above
T4 sequence (P19086 whole entry partner): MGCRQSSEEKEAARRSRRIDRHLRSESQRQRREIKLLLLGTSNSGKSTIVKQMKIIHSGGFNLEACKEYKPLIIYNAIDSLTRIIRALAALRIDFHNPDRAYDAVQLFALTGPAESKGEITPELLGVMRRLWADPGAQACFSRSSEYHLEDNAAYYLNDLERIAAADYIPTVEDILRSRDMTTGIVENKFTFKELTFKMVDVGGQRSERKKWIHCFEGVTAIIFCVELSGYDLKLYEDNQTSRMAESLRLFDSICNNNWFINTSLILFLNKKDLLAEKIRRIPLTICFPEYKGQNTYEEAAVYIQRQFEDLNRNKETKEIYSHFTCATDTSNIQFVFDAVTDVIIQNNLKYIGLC
T4 sequence (P16520 whole entry partner): as the sequence (P16520 whole entry) above
T4 sequence (P63211 1-71 partner limits assumed): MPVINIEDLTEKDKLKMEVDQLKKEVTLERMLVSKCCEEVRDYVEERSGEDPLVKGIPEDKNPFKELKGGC

hKOR with Gα3 subunit = biological target: T5, hKOR with Gα3 subunit (Homo sapiens, UniProt P41145); experiment: TRUPATH (BRET) G-protein dissociation, Gα3 subunit; type: cell-based; details: mean ± SEM
T5 construct: alpha7 nicotinic receptor signal peptide (N); expressed in transfected cells; host or cells: HEK293, transient
T5 sequence (P41145 whole entry): as the sequence (P41145 whole entry) above
T5 sequence (P08754 whole entry partner): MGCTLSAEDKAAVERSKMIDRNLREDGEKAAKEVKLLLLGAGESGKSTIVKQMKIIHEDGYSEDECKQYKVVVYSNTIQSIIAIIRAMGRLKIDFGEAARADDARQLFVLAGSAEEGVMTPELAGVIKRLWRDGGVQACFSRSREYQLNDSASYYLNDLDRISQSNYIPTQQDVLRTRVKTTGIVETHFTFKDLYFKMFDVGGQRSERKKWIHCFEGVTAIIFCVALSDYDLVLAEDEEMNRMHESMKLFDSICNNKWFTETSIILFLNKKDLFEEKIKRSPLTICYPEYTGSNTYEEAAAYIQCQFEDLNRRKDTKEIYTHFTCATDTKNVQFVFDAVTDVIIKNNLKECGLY
T5 sequence (P16520 whole entry partner): as the sequence (P16520 whole entry) above
T5 sequence (O14610 1-66 partner limits assumed): as the sequence (O14610 1-66, further chain) above

[2] = biological target: T6, human KOR receptors (hKOR) (Homo sapiens, UniProt P41145); experiment: [35S]GTPγS functional assay on hKOR-CHO cell membranes; type: biochemical; details: SEM
T6 construct: expressed in transfected cells
T6 sequence (P41145 whole entry): as the sequence (P41145 whole entry) above
Experimental: CHO cells stably transfected with human KOR receptors (hKOR-CHO) were courtesy of Prof. Liu-Chen (Temple University, Philadelphia, PA, USA). Cells were grown in Gibco™ Dulbecco’s Minimal Essential Medium (DMEM) supplemented with 10% FBS, Glutamax (100 μg/mL), penicillin/ streptomycin (100 μg/mL) and geneticin (G418, 400 μg/mL). […] Cell cultures were maintained in a Heracell™ 150i CO2 incubator at 37 °C and 5.0% CO2.
Functional assays were conducted on hKOR-CHO cell membranes. Membranes were prepared in 50 mM Tris-HCl buffer pH 7.7. Cells were harvested by scraping the plates with a rubber policeman and were then centrifuged at 500× g for 10 min. The cell pellet was resuspended in Tris-HCl, homogenized with a Dounce homogenizer and centrifuged at 27,000× g for 15 min. […] The protein concentration of the homogenate was determined by Biuret reaction (RotiQuant Universal, Carl Roth) and stored at −70 °C until use.
To perform the GTPγS assay, membrane homogenates (10 μg/reaction tube) were diluted in HEPES buffer (20 mM) together with 10 μM GDP and 0.05 nM [^35S]GTPγS (Perkin Elmer, MA, USA). […] Non-specific binding was determined using 10 μM unlabeled GTPγS (Sigma-Aldrich, Vienna, Austria). Samples were filtered over glass fiber filters (GF/B Whatman) and the bound radioactivity was measured by liquid scintillation counting as counts per minute (CPM).

hKOR with GαoB subunit = biological target: T7, hKOR with GαoB subunit (Homo sapiens, UniProt P41145); experiment: TRUPATH (BRET) G-protein dissociation, GαoB subunit; type: cell-based; details: SEM
T7 construct: alpha7 nicotinic receptor signal peptide (N); expressed in transfected cells; host or cells: HEK293, transient
T7 sequence (P41145 whole entry): as above
T7 sequence (P09471 1-354 isoform P09471-2 partner): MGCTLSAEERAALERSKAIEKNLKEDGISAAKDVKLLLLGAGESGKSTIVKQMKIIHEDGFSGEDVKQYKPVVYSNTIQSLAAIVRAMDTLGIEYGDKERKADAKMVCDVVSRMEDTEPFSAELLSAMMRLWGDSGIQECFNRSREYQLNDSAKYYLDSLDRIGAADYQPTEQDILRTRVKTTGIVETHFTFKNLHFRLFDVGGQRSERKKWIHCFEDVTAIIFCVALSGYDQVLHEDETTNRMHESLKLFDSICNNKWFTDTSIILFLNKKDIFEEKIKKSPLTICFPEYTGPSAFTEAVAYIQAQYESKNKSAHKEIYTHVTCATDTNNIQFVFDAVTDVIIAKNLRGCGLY
T7 sequence (P16520 whole entry partner): as the sequence (P16520 whole entry) above
T7 sequence (Q9UK08 1-67 partner limits assumed): as the sequence (Q9UK08 1-67 partner limits assumed) above

[3] = EC50, TRUPATH α3 (#, same cell batch), HEK293 with hKOR and Gα3, signal bias series marked #, performed on the same cell batch, n = 9

hKOR with GαoA subunit, sequence (P16520 whole entry): as the sequence (P16520 whole entry) above
hKOR with GαoA subunit, sequence (P41145 whole entry): as the sequence (P41145 whole entry) above
hKOR with GαoA subunit, sequence (P09471 whole entry, further chain): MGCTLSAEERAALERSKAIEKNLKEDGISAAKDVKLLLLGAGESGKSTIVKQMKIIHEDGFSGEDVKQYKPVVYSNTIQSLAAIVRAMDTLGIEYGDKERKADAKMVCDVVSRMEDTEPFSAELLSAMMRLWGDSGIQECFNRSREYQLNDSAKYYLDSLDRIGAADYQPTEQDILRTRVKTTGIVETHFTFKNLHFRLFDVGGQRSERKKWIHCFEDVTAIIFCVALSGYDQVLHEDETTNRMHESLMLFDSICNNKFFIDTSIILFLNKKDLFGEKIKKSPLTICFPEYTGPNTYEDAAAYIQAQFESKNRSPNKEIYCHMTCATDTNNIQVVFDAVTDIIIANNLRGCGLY
hKOR with GαoA subunit, sequence (Q9UK08 1-67, further chain): as the sequence (Q9UK08 1-67 partner limits assumed) above

Sequence | EC50 (hKOR with GαoA subunit) [nM] | EC50 (hKOR with Gα1 subunit) [nM] | EC50 (hKOR with Gα2 subunit) [nM] | EC50 [1] [nM] | EC50 (hKOR with GαZ subunit) [nM] | EC50 (hKOR with Gα3 subunit; [3]) [nM] | EC50 (hKOR with Gα3 subunit; EC50, TRUPATH α3, HEK293 transiently transfected with hKOR and Gα3, 30 min, n = 6 (transducerome series)) [nM] | EC50 [2] [nM] | EC50 (hKOR with GαoB subunit) [nM]
YGGFLWRIRPKLKWDNQ [DynA_R6W] | 133 ± 80 | 211 ± 36 | 78 ± 42 | 670 ± 215 | 27 ± 9 | 133 ± 75 | 161 ± 51 | 105 ± 23 | 62 ± 15
YGGFSRRIRPKLKWDNQ [DynA_L5S] | – | – | – | 236 ± 65 | – | 78 ± 37 | – | – | –
YGGFLRRICPKLKWDNQ [DynA_R9C] | – | – | – | 88 ± 32 | – | 24 ± 9 | – | – | –
